# Tests used:
# Experiment in all cases: combination Emax (second highest fraction inhibited in the dose matrix, 72 h); higher = more inhibition; extreme values may be limits of the assay
# [1] = tested on: EW-7 (Ewing's Sarcoma)
# Procedure, shortened: (§1)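 Cell lines in DMEM/F12 or RPMI with 10% FBS were plated in 1536-well plates, held 24 hours at 37°C, 5% CO2, then given two-drug dose matrices for 72 hours (DMSO typically 0.2%). Viability was read by CellTiter-Glo 2.0 luminescence and scaled as inhibition from 0 (vehicle wells) to 1 (blank wells). Combination Emax is the second-highest inhibition in the matrix; Bliss excess is observed combination effect minus expected EA + EB − EA·EB, EA and EB being single-agent effects.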
# [2] = tested on: JHU-022 (Oral Cavity Carcinoma)
# Procedure, shortened: as §1
# [3] = tested on: NCI-H2087 (Lung Adenocarcinoma)
# Procedure, shortened: as §1
# [4] = tested on: UACC-812 (Breast Carcinoma)
# Procedure, shortened: as §1
# [5] = tested on: NCI-H1703 (Squamous Cell Lung Carcinoma)
# Procedure, shortened: as §1
# [6] = tested on: PEO1 (Ovarian Carcinoma)
# Procedure, shortened: as §1
# [7] = tested on: KYSE-220 (Esophageal Squamous Cell Carcinoma)
# Procedure, shortened: as §1
SMILES,combination Emax [1],combination Emax [2],combination Emax [3],combination Emax [4],combination Emax [5],combination Emax [6],combination Emax [7]
"C=CCn1c(=O)c2cnc(Nc3ccc(N4CCN(C)CC4)cc3)nc2n1-c1cccc(C(C)(C)O)n1 [AZD1775] + CCc1c2c(nc3ccc(O)cc13)-c1cc3c(c(=O)n1C2)COC(=O)[C@]3(O)CC [SN-38] (first compound max 1 µM, partner max 0.3 µM)",0.966,0.783,0.941,0.513,0.992,0.768,0.909
"C=CCn1c(=O)c2cnc(Nc3ccc(N4CCN(C)CC4)cc3)nc2n1-c1cccc(C(C)(C)O)n1 [AZD1775] + Nc1ccn([C@@H]2O[C@H](CO)[C@@H](O)C2(F)F)c(=O)n1 [Gemcitabine] (first compound max 1 µM, partner max 0.3 µM)",1,0.617,0.6,0.626,0.984,0.65,0.793
"CN(CCO)CC[C@H](CSc1ccccc1)Nc1ccc(S(=O)(=O)NC(=O)c2ccc(N3CCC([C@@H](O)c4ccccc4-c4ccc(Cl)cc4)CC3)cc2)cc1S(=O)(=O)C(F)(F)F [AZD4320] + CS(=O)(=O)CCNCc1ccc(-c2ccc3ncnc(Nc4ccc(OCc5cccc(F)c5)c(Cl)c4)c3c2)o1 [Lapatinib] (first compound max 1 µM, 7x7, partner max 10 µM)",0.979,0.784,0.541,0.616,0.862,0.829,0.967
"Cc1c2c(nn1C)CSCc1cc(n(C)n1)CSc1cc(c3ccccc3c1)OCCCc1c(C(=O)O)n(C)c3c-2c(Cl)ccc13 [AZD5991] + CC(=O)O[C@H]1C(=O)[C@@]2(C)[C@H]([C@H](OC(=O)c3ccccc3)[C@]3(O)C[C@H](OC(=O)[C@H](O)[C@@H](NC(=O)c4ccccc4)c4ccccc4)C(C)=C1C3(C)C)[C@]1(OC(C)=O)CO[C@@H]1C[C@@H]2O [Paclitaxel] (first compound max 1 µM, 7x7, partner max 3 µM)",0.984,0.371,0.554,0.794,0.993,0.762,0.745
"Cc1c2c(nn1C)CSCc1cc(n(C)n1)CSc1cc(c3ccccc3c1)OCCCc1c(C(=O)O)n(C)c3c-2c(Cl)ccc13 [AZD5991] + CS(=O)(=O)CCNCc1ccc(-c2ccc3ncnc(Nc4ccc(OCc5cccc(F)c5)c(Cl)c4)c3c2)o1 [Lapatinib] (first compound max 1 µM, 7x7, partner max 10 µM)",0.666,0.705,0.275,0.929,0.935,0.442,0.933
"Cc1c2c(nn1C)CSCc1cc(n(C)n1)CSc1cc(c3ccccc3c1)OCCCc1c(C(=O)O)n(C)c3c-2c(Cl)ccc13 [AZD5991] + Nc1ccn([C@@H]2O[C@H](CO)[C@@H](O)C2(F)F)c(=O)n1 [Gemcitabine] (first compound max 1 µM, 7x7, partner max 0.3 µM)",1,0.659,0.546,0.755,0.954,0.544,0.724
"C[C@@H]1COCCN1c1cc(C2([S@](C)(=N)=O)CC2)nc(-c2ccnc3[nH]ccc23)n1 [AZD6738] + C1CC(C1)(C(=O)[O-])C(=O)[O-].N.N.[Pt+2] [Carboplatin] (first compound max 10 µM, 7x7, partner max 10 µM)",0.936,0.513,0.564,0.381,0.932,0.675,0.827
"C[C@@H]1COCCN1c1cc(C2([S@](C)(=N)=O)CC2)nc(-c2ccnc3[nH]ccc23)n1 [AZD6738] + Nc1ccn([C@@H]2O[C@H](CO)[C@@H](O)C2(F)F)c(=O)n1 [Gemcitabine] (first compound max 10 µM, 7x7, partner max 0.3 µM)",1,0.695,0.699,0.66,0.954,0.696,0.857
"C[C@@H](Nc1cc(F)cc(F)c1)c1cc(C(=O)N(C)C)cc2c(=O)cc(N3CCOCC3)oc12 [AZD8186] + C1CN(CCC1(C(=O)N[C@@H](CCO)C2=CC=C(C=C2)Cl)N)C3=NC=NC4=C3C=CN4 [AZD5363] (first compound max 10 µM, 7x7, partner max 10 µM)",0.678,0.494,0.195,0.333,0.635,0.351,0.445
"C[C@@H](Nc1cc(F)cc(F)c1)c1cc(C(=O)N(C)C)cc2c(=O)cc(N3CCOCC3)oc12 [AZD8186] + CC(=O)c1c(C)c2cnc(Nc3ccc(N4CCNCC4)cn3)nc2n(C2CCCC2)c1=O [Palbociclib] (first compound max 10 µM, 7x7, partner max 10 µM)",0.509,0.512,0.24,0.389,0.643,0.454,0.38

# Reference: the supplement of paper PMC11061612
